Laboratory results reported in PMC9218685, “Legume Plant Peptides as Sources of Novel Antimicrobial Molecules Against Human Pathogens” (Frontiers in Molecular Biosciences, 2022).
≈ marks a conversion by molar mass, not a printed value. Entries after “also recorded” stand apart in the source; their conditions may differ. Peptide text beside a SMILES is read from it.

Legend:
[1] = test system: Lambda DNA/HindIII marker; assay: Gel retardation assay (DNA aggregation); format: binding; conditions: 100 ng DNA, 5 or 10 µM peptide in water, 30 min at room temperature, 1% agarose gel
Description: Interactions of peptides with DNA was visualized with gel retardation assay ([Hsu et al., 2005]). 100 ng Lambda DNA/HindIII marker (ThermoFisher Scientific) was incubated with 0, 5 or 10 µM synthetic NCRs or NCR derivatives in water for 30 min at room temperature and then loaded into 1% agarose gel. Electrophoresis of DNA fragments separated the mobile HindIII-digested DNA fragments while the aggregated DNA remained in the loading wells.
FIGURE 6 Aggregation of DNA by NCR peptides. Lambda HindIII digested DNA was incubated without (0) or with NCR peptides at 5 or 10 μM concentration.

[2] = test system: E. coli, S. enteritidis, P. aeruginosa, L. monocytogenes, S. aureus, E. faecalis, K. pneumoniae and A. baumannii; assay: Antimicrobial activity assay, spectrum over the eight tested pathogenic bacteria; format: cell-based; conditions: 3 h treatment of ~10^7 log phase bacteria, peptides 25 to 0.8 µM; active = MBC ≤25 µM
In short: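 Log-phase bacteria (~10^7) treated 3 h with NCR peptides in potassium-phosphate buffer pH 7.4, two-fold dilutions from 25 µM to 0.8 µM. MBC is the lowest concentration completely eliminating viable bacteria. Strains: E. faecalis ATCC 29212, S. aureus HNCMO112011, L. monocytogenes ATCC 19111, P. aeruginosa ATCC 27853, E. coli ATCC 8739, S. enterica ATCC 13076, K. pneumoniae NCTC 13440, A. baumannii ATCC 17978.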

A. baumannii = assay: Scanning electron microscopy of cell morphology; format: cell-based, Acinetobacter baumannii; conditions: 30 min treatment, peptide 1.6 or 3.125 µM as in Figure 3 legend
Description: (§1) A. baumannii and C. albicans were grown and treated the same way as for the membrane permeability assay. Cells were then fixed with 2.5% (v/v) glutaraldehyde in phosphate buffered saline (PBS, pH 7.4). 5 μl of the above bacterial and yeast suspensions were spotted on a silicon disk coated with 0.01% Poly-L-Lysine. The filters were washed twice with PBS and gradually dehydrated with ethanol series (30, 50, 70, 80%, and three times 100% ethanol, each for minimum 30 min). The samples were dried with a critical point dryer (K850: Quorum Technologies Ltd.), followed by 12 nm gold coating and observed under a JEOL JSM-7100F/LV scanning electron microscope.
FIGURE 3 Viability, membrane permeability and morphology of A. baumannii cells after NCR treatment (A–L) SYTO9/PI staining observed with confocal microscope, (M–X) Cell morphology observed with SEM. (A,M) untreated control, (B,N) CaNCR13, 3.125 µM, (C,O) CaNCR63, 3.125 µM, (D,P) CaNCR63_1-20, 3.125 µM, (E,Q) CaNCR63_15-34, 3.125 µM, (F,R) MsNCR443, 3.125 µM, (G,S) MsNCR463_16-35, 1.6 µM, (H,T) MsNCR463_17-30, 3.125 µM, (I,U) PsNCR349, 1.6 µM, (J,V) PsNCR349_26-50, 3.125 µM, (K,W) PsNCR349_31-50, 3.125 µM, (L,X) PsNCR352, 1.6 µM.

C. albicans = assay: Scanning electron microscopy of cell morphology; format: cell-based, Candida albicans; conditions: 30 min treatment, peptide 1.6, 3.125 or 25 µM as in Figure 4 legend
Description: as §1

[3] = test system: Acinetobacter baumannii (ATCC 17978); assay: microbe, parasite or virus in culture; format: cell-based; conditions: for MBC: ~10^7 log phase bacteria, Potassium-Phosphate Buffer pH 7.4, 3 h treatment, two-fold dilution series, lowest concentration completely eliminating viable bacteria, read-out: MBC, minimal bactericidal concentration against A. baumannii
In short: (§2)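 About 10^7 log-phase bacteria were treated for 3 h in potassium-phosphate buffer (pH 7.4) with 2-fold peptide dilutions from 25 µM downward. MBC was the lowest concentration that completely eliminated viable bacteria.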

[4] = test system: Staphylococcus aureus (HNCMO112011); format: cell-based; conditions: HNCMO112011, 3 h
In short: as §2

[5] = test system: Salmonella enterica (ATCC 13076); format: cell-based; conditions: ATCC 13076, 3 h
In short: as §2

[6] = test system: Pseudomonas aeruginosa (ATCC 27853); format: cell-based; conditions: ATCC 27853, 3 h
In short: as §2

[7] = test system: Listeria monocytogenes (ATCC 19111); format: cell-based; conditions: ATCC 19111, 3 h
In short: as §2

[8] = test system: Enterococcus faecalis (ATCC 29212); format: cell-based
In short: as §2

[9] = test system: Escherichia coli (ATCC 8739); format: cell-based; conditions: ATCC 8739, 3 h
In short: as §2

[10] = test system: Klebsiella pneumoniae (NCTC 13440); format: cell-based; conditions: NCTC 13440, 3 h
In short: as §2

Row | Structure (SMILES) | Aggregation of HindIII-digested λ DNA (DNA retained in loading wells) [1] | Antibacterial spectrum over the eight tested bacterial strains [2] | Morphology of A. baumannii cells by SEM (A. baumannii) | Morphology of C. albicans cells by SEM (C. albicans) | MBC [3] [µM] | MBC Acinetobacter baumannii ([3]; ATCC 17978, 3 h) [µM] | MBC Staphylococcus aureus [4] [µM] | MBC Salmonella enterica [5] [µM] | MBC Pseudomonas aeruginosa [6] [µM] | MBC Listeria monocytogenes [7] [µM] | Ability to kill E. faecalis ([8]; 3 h, ~10^7 log phase bacteria, peptides ≤25 µM) | MBC Enterococcus faecalis ([8]; ATCC 29212, 3 h) [µM] | MBC Escherichia coli [9] [µM] | MBC Klebsiella pneumoniae [10] [µM]
1 | CC[C@H](C)[C@H](NC(=O)[C@H](CCCNC(=N)N)NC(=O)[C@@H](NC(=O)[C@H](CS)NC(=O)[C@H](CCCCN)NC(=O)[C@H](CS)NC(=O)[C@H](Cc1ccccc1)NC(=O)CNC(=O)[C@H](CC(N)=O)NC(=O)[C@@H](NC(=O)[C@H](CS)NC(=O)[C@H](CCCCN)NC(=O)[C@@H]1CCCN1C(=O)[C@@H](NC(=O)[C@H](CCCCN)NC(=O)[C@@H]1CCCN1C(=O)[C@H](CCCCN)NC(=O)[C@H](CCCNC(=N)N)NC(=O)[C@H](CS)NC(=O)[C@H](C)NC(=O)[C@H](Cc1ccccc1)NC(=O)[C@H](CCCCN)NC(=O)[C@H](CCCCN)NC(=O)[C@H](CS)NC(=O)[C@H](CC(=O)O)NC(=O)[C@H](CCCCN)NC(=O)[C@H](CC(=O)O)NC(=O)[C@H](CO)NC(=O)[C@H](CCC(N)=O)NC(=O)[C@H](CS)NC(=O)[C@@H]1CCCN1C(=O)[C@@H](N)CCCCN)C(C)C)[C@@H](C)CC)C(C)C)C(=O)N[C@@H](Cc1c[nH]c2ccccc12)C(=O)O [CaNCR13] (H-KPCQSDKDCKKFACRKPKVPKCINGFCKCVRIW-OH; N-terminus assumed) | did not | broad-spectrum activity | Only dead cells were visible | aggregation of shrunken cells in a spider net like matrix | – | – | – | – | – | – | – | – | – | –
2 | CC[C@H](C)[C@H](NC(=O)[C@H](CCCCN)NC(=O)[C@H](CO)NC(=O)[C@H](CCCNC(=N)N)NC(=O)[C@@H]1CCCN1C(=O)[C@H](CS)NC(=O)[C@H](CCCNC(=N)N)NC(=O)[C@H](Cc1ccc(O)cc1)NC(=O)[C@H](CCCCN)NC(=O)[C@H](CCCCN)NC(=O)[C@H](CS)NC(=O)[C@H](CC(=O)O)NC(=O)[C@@H](NC(=O)[C@H](CCCNC(=N)N)NC(=O)[C@@H](NC(=O)[C@H](CCCCN)NC(=O)[C@H](CS)NC(=O)[C@@H](NC(=O)[C@H](CCSC)NC(=O)[C@@H](N)CCCCN)[C@@H](C)CC)[C@@H](C)O)C(C)C)C(=O)N[C@@H](CCCCN)C(=O)N[C@@H](CC(=O)O)C(=O)N[C@@H](CS)C(=O)N[C@H](C(=O)N[C@@H](CCCCN)C(=O)NCC(=O)N[C@@H](Cc1ccc(O)cc1)C(=O)N[C@@H](CS)C(=O)N[C@@H](CCCNC(=N)N)C(=O)N[C@@H](CS)C(=O)N[C@H](C(=O)N[C@@H](CCCNC(=N)N)C(=O)N[C@@H](CCCCN)C(=O)N[C@@H](CCCCN)C(=O)O)C(C)C)C(C)C [CaNCR63] (H-KMICKTRVDCKKYRCPRSKIKDCVKGYCRCVRKK-OH; N-terminus assumed) | DNA remained in the wells | broad-spectrum activity | rough cell surface, lysis and flattening of the cells | Flattening of cells; also recorded: aggregation of shrunken cells in a spider net like matrix | 6.25 (≈ 25.8 µg/mL) | – | – | – | – | – | – | – | – | –
3 | CC[C@H](C)[C@H](N)C(=O)N[C@@H](Cc1ccc(O)cc1)C(=O)N[C@@H](Cc1ccccc1)C(=O)N[C@@H](CCCNC(=N)N)C(=O)N[C@@H](CCCCN)C(=O)N1CCC[C@H]1C(=O)N1CCC[C@H]1C(=O)N1CCC[C@H]1C(=O)N[C@@H](CS)C(=O)N[C@H](C(=O)N[C@H](C(=O)N[C@@H](CC(=O)O)C(=O)N[C@@H](CCCCN)C(=O)N[C@@H](CC(=O)O)C(=O)N[C@@H](CS)C(=O)N1CCC[C@H]1C(=O)N[C@@H](CCC(N)=O)C(=O)N[C@@H](CCSC)C(=O)N[C@@H](CCCCN)C(=O)N[C@H](C(=O)N[C@@H](CC(N)=O)C(=O)N[C@@H](CC(N)=O)C(=O)N[C@H](C(=O)N[C@@H](CCCNC(=N)N)C(=O)N[C@@H](CS)C(=O)N[C@@H](CCCNC(=N)N)C(=O)N[C@@H](CCCCN)C(=O)NCC(=O)N[C@@H](Cc1ccccc1)C(=O)N[C@@H](CS)C(=O)N[C@H](C(=O)N[C@@H](CCC(N)=O)C(=O)N[C@H](C(=O)N[C@@H](Cc1c[nH]cn1)C(=O)N[C@@H](CCCCN)C(=O)N[C@@H](Cc1ccccc1)C(=O)N[C@H](C(=O)N1CCC[C@H]1C(=O)O)[C@@H](C)O)[C@@H](C)CC)[C@@H](C)CC)C(C)C)[C@@H](C)CC)[C@@H](C)O)[C@@H](C)CC [NCR358] (H-IYFRKPPPCITDKDCPQMKINNVRCRKGFCIQIHKFTP-OH; N-terminus assumed) | – | capable of killing all tested bacteria; also recorded: active against all the eight tested pathogens | – | – | – | 3.125 (≈ 14.2 µg/mL) | 3.125 (≈ 14.2 µg/mL) | 3.125 (≈ 14.2 µg/mL) | 3.125 (≈ 14.2 µg/mL) | 3.125 (≈ 14.2 µg/mL) | able to kill | 6.25 (≈ 28.4 µg/mL) | 1.6 (≈ 7.26 µg/mL) | 25 (≈ 113 µg/mL)
4 | CC[C@H](C)[C@H](NC(=O)[C@H](CCCNC(=N)N)NC(=O)[C@H](CCCNC(=N)N)NC(=O)[C@H](CS)NC(=O)[C@H](CCCNC(=N)N)NC(=O)[C@H](CCCNC(=N)N)NC(=O)[C@H](CCC(=O)O)NC(=O)[C@@H](NC(=O)[C@H](CS)NC(=O)[C@H](CC(C)C)NC(=O)[C@@H](NC(=O)[C@H](CCCCN)NC(=O)[C@H](Cc1ccc(O)cc1)NC(=O)[C@@H](NC(=O)[C@H](CCCCN)NC(=O)[C@H](CO)NC(=O)[C@H](CS)NC(=O)[C@H](CCCNC(=N)N)NC(=O)[C@H](Cc1ccccc1)NC(=O)[C@H](CCCNC(=N)N)NC(=O)[C@H](CC(C)C)NC(=O)[C@H](CS)NC(=O)[C@H](CC(=O)O)NC(=O)[C@H](CO)NC(=O)[C@H](CC(=O)O)NC(=O)[C@H](CC(N)=O)NC(=O)[C@H](CC(C)C)NC(=O)[C@H](CS)NC(=O)[C@H](CCCNC(=N)N)NC(=O)[C@H](CC(C)C)NC(=O)CNC(=O)[C@H](CO)NC(=O)[C@@H]1CCCN1)[C@@H](C)CC)C(C)C)[C@@H](C)CC)C(=O)N[C@@H](CCCCN)C(=O)N[C@@H](CCSC)C(=O)N[C@@H](Cc1c[nH]cn1)C(=O)O [PsNCR352] | did not | broad-spectrum activity | cell form was preserved | Flattening of cells; also recorded: aggregation of shrunken cells in a spider net like matrix | 6.25 (≈ 27.3 µg/mL) | – | – | – | – | – | – | – | – | –
